Data taken from PubChem BioAssay (NCI).
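Exposure lasted 48 hours, with cells grown in 96-well plates and compounds tested at five concentrations. Abbreviation: GI50, concentration required for 50% inhibition of growth. Definition used: TGI = concentration required for complete inhibition of growth.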

Assays:
Assay in all cases: DTP human tumour cell line panel, 48 h
[1] = test system: T-47D breast
[2] = test system: SN12C renal
[3] = test system: OVCAR-5 ovarian
[4] = test system: UACC-62 melanoma
[5] = test system: 786-0 renal
[6] = test system: TK-10 renal
[7] = test system: COLO 205 colon
[8] = test system: U251 CNS
[9] = test system: LOX IMVI melanoma
[10] = test system: CAKI-1 renal

## Cn1cc(-c2csc(-c3cn(CCN4CCOCC4)c4ccc(F)cc34)n2)c2cccnc21
[1]
  GI50: 1.52 µM
  TGI: 4.73 µM
[2]
  GI50: 3.15 µM
  TGI: > 100 µM
[3]
  GI50: 4.59 µM
  TGI: > 100 µM
[4]
  GI50: 2.06 µM
  TGI: 5.34 µM
[5]
  GI50: 2.91 µM
  TGI: 11.4 µM
[6]
  GI50: 3.28 µM
  TGI: 18.8 µM
[7]
  GI50: 2.08 µM
  TGI: 5.23 µM
[8]
  GI50: 3.35 µM
  TGI: 22.2 µM

## Cc1cc[c-]cc1.Fc1c[c-]c(-c2ccccn2)c(F)c1.N#CCC[PH+](CCC#N)c1ccccc1.[Pt+2]
[1]
  GI50: 2.79 µM
  TGI: 41.1 µM
[2]
  GI50: 3.17 µM
  TGI: 36.1 µM
[3]
  GI50: 3.79 µM
  TGI: 19.6 µM
[4]
  GI50: 1.79 µM
  TGI: 4.43 µM
[5]
  GI50: 3.57 µM
  TGI: 18.8 µM
[6]
  GI50: 4.45 µM
  TGI: 36 µM
[8]
  GI50: 3.61 µM
  TGI: 15.4 µM
[9]
  GI50: 2.26 µM
  TGI: 5.18 µM
[10]
  GI50: 2.7 µM
  TGI: 14.1 µM

## O=C1Cc2ccccc2N1/N=C\c1ccc(O)cc1
[2]
  TGI: > 100 µM
[3]
  TGI: > 100 µM
[4]
  TGI: > 100 µM
[5]
  TGI: > 100 µM
[6]
  TGI: > 100 µM
[7]
  TGI: > 100 µM
[8]
  TGI: > 100 µM
[9]
  TGI: > 100 µM
[10]
  TGI: > 100 µM

## COC1=NN2C(OC)(c3ccccc3)c3c(-c4ccccc4)sc(-c4ccccc4)c3C2(c2ccccc2)S1 (configuration not stated)
[2]
  TGI: > 100 µM
[3]
  TGI: > 100 µM
[4]
  TGI: > 100 µM
[5]
  TGI: > 100 µM
[6]
  TGI: > 100 µM
[7]
  TGI: > 100 µM
[8]
  TGI: > 100 µM
[9]
  TGI: > 100 µM
[10]
  TGI: > 100 µM

## CCOC(=O)c1c(-c2[nH]c(C(=O)OCc3ccccc3)c(C)c2C(=O)OCC)[nH]c(C(=O)OCc2ccccc2)c1C
[2]
  TGI: > 100 µM
[3]
  TGI: > 100 µM
[4]
  TGI: > 100 µM
[5]
  TGI: > 100 µM
[6]
  TGI: > 100 µM
[7]
  TGI: > 100 µM
[8]
  TGI: > 100 µM
[9]
  TGI: > 100 µM
[10]
  TGI: > 100 µM

## C#CCOCn1cnc2ncnc(Cl)c21
[2]
  TGI: > 100 µM
[3]
  TGI: > 100 µM
[4]
  TGI: > 100 µM
[5]
  TGI: > 100 µM
[6]
  TGI: > 100 µM
[7]
  TGI: > 100 µM
[8]
  TGI: > 100 µM
[9]
  TGI: > 100 µM
[10]
  TGI: > 100 µM

## Cc1cc2nc3ccc(N=Nc4ccc(N(C)C)cc4)cc3n(-c3ccccc3)c-2cc1=N
[1]
  GI50: 0.00296 µM
  TGI: 0.0706 µM
[3]
  GI50: 0.0486 µM
  TGI: 1.55 µM
[5]
  GI50: 0.0778 µM
  TGI: 0.505 µM
[7]
  GI50: 0.00343 µM
  TGI: 0.0216 µM
[8]
  GI50: 0.0183 µM
  TGI: 0.114 µM
[9]
  GI50: 0.0259 µM
  TGI: 0.117 µM
[10]
  GI50: 0.0369 µM
  TGI: 1.07 µM

## O=C1Nc2ccccc2C12CC(c1ccccc1)=NN2 (configuration not stated)
[1]
  GI50: 6.98 µM
  TGI: > 100 µM
[2]
  GI50: 7.73 µM
  TGI: > 100 µM
[3]
  GI50: 16.4 µM
  TGI: 96.1 µM
[4]
  GI50: 4.38 µM
  TGI: > 100 µM
[5]
  GI50: 6.36 µM
  TGI: 65.2 µM
[7]
  GI50: 4.62 µM
  TGI: 25.9 µM
[8]
  GI50: 5.4 µM
  TGI: > 100 µM
[9]
  GI50: 6.46 µM
  TGI: 87.4 µM
[10]
  GI50: 7.57 µM
  TGI: > 100 µM

## Cc1cc(N(CCCNc2ccnc3cc(Cl)ccc23)Cc2cccs2)nc(Cl)n1
[1]
  GI50: 1.99 µM
  TGI: 20.6 µM
[2]
  GI50: 5.91 µM
  TGI: 23.9 µM
[3]
  GI50: 5.9 µM
  TGI: 24.3 µM
[4]
  GI50: 5.15 µM
  TGI: 21 µM
[5]
  GI50: 5.48 µM
  TGI: 20.6 µM
[6]
  GI50: 5.96 µM
  TGI: 20.9 µM
[7]
  GI50: 2.24 µM
  TGI: 7.8 µM
[8]
  GI50: 6.75 µM
  TGI: 22.2 µM
[9]
  GI50: 2.79 µM
  TGI: 11.7 µM

## COc1ccc2nc(-c3ccccc3)cc(Nc3ccc(/C(C)=N/O)cc3)c2c1
[1]
  GI50: 6.18 µM
  TGI: > 100 µM
[2]
  GI50: 1.7 µM
  TGI: 3.19 µM
[3]
  GI50: 5.5 µM
  TGI: > 100 µM
[4]
  GI50: 2.1 µM
  TGI: 4.65 µM
[5]
  GI50: 2.09 µM
  TGI: 3.7 µM
[6]
  GI50: 1.63 µM
  TGI: 3.42 µM
[7]
  GI50: 4.91 µM
  TGI: > 100 µM
[8]
  GI50: 6.7 µM
  TGI: > 67.1 µM
[10]
  GI50: 2.5 µM

## CN(C)c1nc(N(C)C)nc(N(C)CN(C)c2nc(N(C)C)nc(N(C)C)n2)n1
[2]
  TGI: > 100 µM
[3]
  TGI: > 100 µM
[4]
  TGI: > 100 µM
[5]
  TGI: 32.9 µM
[6]
  TGI: > 100 µM
[7]
  TGI: > 100 µM
[8]
  TGI: > 100 µM
[9]
  TGI: > 100 µM
[10]
  TGI: > 100 µM

## COc1cc(NCC(C#N)C#N)ccc1N=Nc1ccc([N+](=O)[O-])cc1
[2]
  TGI: > 100 µM
[3]
  TGI: > 100 µM
[4]
  TGI: > 100 µM
[5]
  TGI: > 100 µM
[6]
  TGI: > 100 µM
[7]
  TGI: > 100 µM
[8]
  TGI: > 100 µM
[9]
  TGI: > 100 µM
[10]
  TGI: > 100 µM

## COc1ccc(N2CCN(CC(=O)N3CCN(c4nnc(-c5ccccc5)c(-c5ccccc5)n4)CC3)CC2)cc1
[1]
  GI50: 2.56 µM
  TGI: 18.5 µM
[2]
  GI50: 8.64 µM
  TGI: > 100 µM
[3]
  GI50: > 100 µM
  TGI: > 100 µM
[5]
  GI50: 4.91 µM
  TGI: > 100 µM
[6]
  GI50: 9.39 µM
  TGI: > 100 µM
[7]
  GI50: 3.25 µM
  TGI: 13.7 µM
[8]
  GI50: 6.43 µM
  TGI: > 100 µM
[9]
  GI50: 11.6 µM
  TGI: > 100 µM
[10]
  GI50: 11.6 µM
  TGI: > 100 µM

## N/C(=N\OC(=O)NC(Cl)=C(Cl)Cl)c1cc(C(F)(F)F)cc(C(F)(F)F)c1
[1]
  TGI: 25.7 µM
[2]
  TGI: 60.8 µM
[3]
  TGI: 38.3 µM
[5]
  TGI: 31.2 µM
[6]
  TGI: 30.4 µM
[7]
  TGI: 33.4 µM
[8]
  TGI: 31.3 µM
[9]
  TGI: 31.8 µM
[10]
  TGI: 33.8 µM

## O=C1C2C(C(=O)[N]1[Hg][c]1ccccc1)C1(Cl)C(Cl)=C(Cl)C2(Cl)C1(Cl)Cl (configuration not stated)
[1]
  GI50: 0.225 µM
  TGI: 1.58 µM
[3]
  GI50: 2.82 µM
  TGI: 5.29 µM
[4]
  GI50: 1.37 µM
  TGI: 2.72 µM
[5]
  GI50: 1.85 µM
  TGI: 3.48 µM
[6]
  GI50: 1.51 µM
  TGI: 2.86 µM
[7]
  GI50: 0.809 µM
  TGI: 2.05 µM
[8]
  GI50: 1.21 µM
  TGI: 2.49 µM
[9]
  GI50: 1.02 µM
  TGI: 2.39 µM
[10]
  GI50: 1.67 µM
  TGI: 4.99 µM

## CNC1=C(C)C(=O)C(C)=C(C(C)(C)CC(=O)n2cc(F)c(=O)[nH]c2=O)C1=O
[2]
  TGI: > 100 µM
[3]
  TGI: > 100 µM
[4]
  TGI: > 100 µM
[5]
  TGI: > 100 µM
[6]
  TGI: > 100 µM
[7]
  TGI: > 100 µM
[8]
  TGI: > 100 µM
[9]
  TGI: > 100 µM
[10]
  TGI: > 100 µM

## O=C1C=C(N2CC2)c2ccccc2C1=O
[1]
  GI50: 1.88 µM
  TGI: 4.17 µM
[2]
  GI50: 1.76 µM
  TGI: 3.22 µM
[3]
  GI50: 2.03 µM
  TGI: 3.68 µM
[4]
  GI50: 1.79 µM
  TGI: 3.25 µM
[5]
  GI50: 1.83 µM
  TGI: 3.28 µM
[6]
  GI50: 2.15 µM
  TGI: 3.64 µM
[7]
  GI50: 2.01 µM
  TGI: 3.49 µM
[8]
  GI50: 1.55 µM
  TGI: 3.01 µM
[9]
  GI50: 2.11 µM
  TGI: 13 µM
